Assay results published in PubChem BioAssay (NCI).
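Results reflect a 48-hour exposure of cells in 96-well plates to compound at five concentrations. The concentration for 50% growth inhibition is given as GI50. TGI marks complete inhibition of growth.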

Columns and labels:
Test in all cases: NCI tumour cell line growth inhibition, 48 h
HCT-116 colon = tested on: HCT-116 colon
MCF7 breast = tested on: MCF7 breast
DU-145 prostate = tested on: DU-145 prostate
HT29 colon = tested on: HT29 colon
HS 578T breast = tested on: HS 578T breast
U251 CNS = tested on: U251 CNS
A549 NSCLC = tested on: A549 NSCLC
SW-620 colon = tested on: SW-620 colon
HOP-92 NSCLC = tested on: HOP-92 NSCLC
EKVX NSCLC = tested on: EKVX NSCLC
A498 renal = tested on: A498 renal
SN12C renal = tested on: SN12C renal
BT-549 breast = tested on: BT-549 breast
IGROV1 ovarian = tested on: IGROV1 ovarian
SNB-19 CNS = tested on: SNB-19 CNS
CAKI-1 renal = tested on: CAKI-1 renal
SF-268 CNS = tested on: SF-268 CNS
CCRF-CEM leukemia = tested on: CCRF-CEM leukemia
NCI-H460 lung = tested on: NCI-H460 lung
SK-OV-3 ovarian = tested on: SK-OV-3 ovarian
NCI-H23 lung = tested on: NCI-H23 lung
SK-MEL-2 melanoma = tested on: SK-MEL-2 melanoma
HOP-62 NSCLC = tested on: HOP-62 NSCLC
SK-MEL-5 melanoma = tested on: SK-MEL-5 melanoma
MALME-3M melanoma = tested on: MALME-3M melanoma
TK-10 renal = tested on: TK-10 renal
M14 melanoma = tested on: M14 melanoma
OVCAR-8 ovarian = tested on: OVCAR-8 ovarian
SK-MEL-28 melanoma = tested on: SK-MEL-28 melanoma
UACC-62 melanoma = tested on: UACC-62 melanoma
KM12 colon = tested on: KM12 colon
ACHN renal = tested on: ACHN renal
HCC-2998 colon = tested on: HCC-2998 colon
UACC-257 melanoma = tested on: UACC-257 melanoma
SNB-75 CNS = tested on: SNB-75 CNS
786-0 renal = tested on: 786-0 renal
PC-3 prostate = tested on: PC-3 prostate
T-47D breast = tested on: T-47D breast
SF-295 CNS = tested on: SF-295 CNS
OVCAR-4 ovarian = tested on: OVCAR-4 ovarian
RPMI-8226 leukemia = tested on: RPMI-8226 leukemia
NCI-H226 lung = tested on: NCI-H226 lung
SF-539 CNS = tested on: SF-539 CNS
MOLT-4 leukemia = tested on: MOLT-4 leukemia
HL-60(TB) leukemia = tested on: HL-60(TB) leukemia
NCI/ADR-RES ovarian = tested on: NCI/ADR-RES ovarian
UO-31 renal = tested on: UO-31 renal
OVCAR-5 ovarian = tested on: OVCAR-5 ovarian
OVCAR-3 ovarian = tested on: OVCAR-3 ovarian
MDA-MB-435 = tested on: MDA-MB-435
LOX IMVI melanoma = tested on: LOX IMVI melanoma
MDA-MB-231 breast = tested on: MDA-MB-231 breast
RXF 393 renal = tested on: RXF 393 renal
HCT-15 colon = tested on: HCT-15 colon
K-562 leukemia = tested on: K-562 leukemia

Q: Which results are given for `IP(CCCSc1n(Cc2ccc3ccccc3c2)c(-c2ccccc2)c(-c2ccccc2)[n+]1Cc1ccc2ccccc2c1)(c1ccccc1)(c1ccccc1)c1ccccc1`?
A: GI50 (HCT-116 colon): 2.99 µM; TGI (HCT-116 colon): 10.6 µM; GI50 (MCF7 breast): 2.77 µM; TGI (MCF7 breast): 9 µM; GI50 (DU-145 prostate): 3.57 µM; TGI (DU-145 prostate): 23.9 µM; GI50 (HT29 colon): 2.52 µM; TGI (HT29 colon): 7.14 µM; GI50 (HS 578T breast): 3.04 µM; TGI (HS 578T breast): 14.1 µM; GI50 (U251 CNS): 3.26 µM; TGI (U251 CNS): > 100 µM; GI50 (A549 NSCLC): 4.49 µM; TGI (A549 NSCLC): 36.1 µM; GI50 (SW-620 colon): 3.56 µM; TGI (SW-620 colon): 21.9 µM; GI50 (HOP-92 NSCLC): 1.69 µM; TGI (HOP-92 NSCLC): 6.48 µM; GI50 (EKVX NSCLC): 4.43 µM; TGI (EKVX NSCLC): 43.1 µM; GI50 (A498 renal): 3.88 µM; TGI (A498 renal): 29.4 µM; GI50 (SN12C renal): 4.07 µM; TGI (SN12C renal): 17.4 µM; GI50 (BT-549 breast): 2.6 µM; TGI (BT-549 breast): 7.25 µM; GI50 (IGROV1 ovarian): 2.96 µM; TGI (IGROV1 ovarian): > 100 µM; GI50 (SNB-19 CNS): 2.39 µM; TGI (SNB-19 CNS): 16.7 µM; GI50 (CAKI-1 renal): 9.96 µM; TGI (CAKI-1 renal): 31.7 µM; GI50 (SF-268 CNS): 3.42 µM; TGI (SF-268 CNS): 20.3 µM; GI50 (CCRF-CEM leukemia): 3.11 µM; TGI (CCRF-CEM leukemia): 12 µM; GI50 (NCI-H460 lung): 2.53 µM; TGI (NCI-H460 lung): 6.25 µM; GI50 (SK-OV-3 ovarian): 3.9 µM; TGI (SK-OV-3 ovarian): 38.4 µM; GI50 (NCI-H23 lung): 2.34 µM; TGI (NCI-H23 lung): 7.13 µM; GI50 (SK-MEL-2 melanoma): 2.05 µM; TGI (SK-MEL-2 melanoma): 5.41 µM; GI50 (HOP-62 NSCLC): 3.3 µM; TGI (HOP-62 NSCLC): 23.4 µM; GI50 (SK-MEL-5 melanoma): 2.42 µM; TGI (SK-MEL-5 melanoma): 5.91 µM; GI50 (MALME-3M melanoma): 2.37 µM; TGI (MALME-3M melanoma): 8.23 µM; GI50 (TK-10 renal): 8.12 µM; TGI (TK-10 renal): 59 µM; GI50 (M14 melanoma): 3.34 µM; TGI (M14 melanoma): 23 µM; GI50 (OVCAR-8 ovarian): 5.62 µM; TGI (OVCAR-8 ovarian): > 100 µM; GI50 (SK-MEL-28 melanoma): 3.25 µM; TGI (SK-MEL-28 melanoma): 15.9 µM; GI50 (UACC-62 melanoma): 2.35 µM; TGI (UACC-62 melanoma): 7.91 µM; GI50 (KM12 colon): 2.45 µM; TGI (KM12 colon): 6.23 µM; GI50 (ACHN renal): 20.2 µM; TGI (ACHN renal): 96.4 µM; GI50 (HCC-2998 colon): 3.74 µM; TGI (HCC-2998 colon): 16.3 µM; GI50 (UACC-257 melanoma): 2.89 µM; TGI (UACC-257 melanoma): 9.64 µM; GI50 (SNB-75 CNS): 2.03 µM; TGI (SNB-75 CNS): 9.21 µM; GI50 (786-0 renal): 5.81 µM; TGI (786-0 renal): 40.1 µM; GI50 (PC-3 prostate): 2.84 µM; TGI (PC-3 prostate): 10.8 µM; GI50 (T-47D breast): 2.89 µM; TGI (T-47D breast): 14.1 µM; GI50 (SF-295 CNS): 3.3 µM; TGI (SF-295 CNS): 16.2 µM; GI50 (OVCAR-4 ovarian): 3.16 µM; TGI (OVCAR-4 ovarian): 22.5 µM; GI50 (RPMI-8226 leukemia): 2.49 µM; TGI (RPMI-8226 leukemia): 6.81 µM; GI50 (NCI-H226 lung): 12.2 µM; TGI (NCI-H226 lung): 98.2 µM; GI50 (SF-539 CNS): 3.08 µM; TGI (SF-539 CNS): 9.57 µM; GI50 (MOLT-4 leukemia): 3.05 µM; TGI (MOLT-4 leukemia): 11.5 µM; GI50 (HL-60(TB) leukemia): 1.9 µM; TGI (HL-60(TB) leukemia): 3.86 µM; GI50 (NCI/ADR-RES ovarian): 17.3 µM; TGI (NCI/ADR-RES ovarian): > 100 µM; GI50 (UO-31 renal): 5.55 µM; TGI (UO-31 renal): > 100 µM; GI50 (OVCAR-5 ovarian): 3.59 µM; TGI (OVCAR-5 ovarian): 17.4 µM; GI50 (OVCAR-3 ovarian): 2.81 µM; TGI (OVCAR-3 ovarian): 8.86 µM; GI50 (MDA-MB-435): 2.84 µM; TGI (MDA-MB-435): 11 µM; GI50 (LOX IMVI melanoma): 1.94 µM; TGI (LOX IMVI melanoma): 4.49 µM; GI50 (MDA-MB-231 breast): 2.81 µM; TGI (MDA-MB-231 breast): 9.58 µM; GI50 (RXF 393 renal): 2.8 µM; TGI (RXF 393 renal): 9.44 µM; GI50 (HCT-15 colon): 19.6 µM; TGI (HCT-15 colon): > 100 µM; GI50 (K-562 leukemia): 3.05 µM; TGI (K-562 leukemia): 10.4 µM
